Test results published in US20100204230A1, “PIPERAZINE DERIVATIVES FOR TREATMENT OF AD AND RELATED CONDITIONS” (priority 2007, published 2010).

Molecular target: T1, γ-secretase (Aβ(1-42) production in SH-SY5Y neuroblastoma cells overexpressing SPA4CT) (Homo sapiens, UniProt P49768)
T1 construct: Human SH-SY5Y neuroblastoma cells overexpressing the direct 7-secretase substrate SPA4CT; endogenous in cells; host or cells: Human SH-SY5Y neuroblastoma cells (stably overexpressing the substrate SPA4CT, induced with sodium butyrate)
Assay: Cell-based γ-secretase assay, Aβ(1-42) inhibition
Details: overnight incubation, Meso Scale detection of Aβ(42)
Method: Cell-Based γ-Secretase Assay
Human SH-SY5Y neuroblastoma cells overexpressing the direct 7-secretase substrate SPA4CT were induced with sodium butyrate (10 mM) for 4 hours prior to plating. Cells were plated at 35,000 cells/well/100 μl in 96-well plates in phenol red-free MEM/10% FBS, 50 mM HEPES, 1% Glutamine and incubated for 2 hrs at 37° C., 5% CO2.
Compounds for testing were diluted into Me2SO to give a ten point dose-response curve. Typically 10 μl of these diluted compounds in Me2SO were further diluted into 182 μl dilution buffer (phenol red-free MEM/10% FBS, 50 mM HEPES, 1% Glutamine) and 10 μl of each dilution was added to the cells in 96-well plates (yielding a final Me2SO concentration of 0.5%). Appropriate vehicle and inhibitor controls were used to determine the window of the assay.
After incubation overnight at 37° C., 5% CO2, 25 μl and 50 μl media were transferred into a standard Meso avidin-coated 96-well plate for detection of Aβ(40) and Aβ(42) peptides, respectively. 25 μl Meso Assay buffer (PBS, 2% BSA, 0.2% Tween-20) was added to the Aβ(40) wells followed by the addition of 25 μl of the respective antibody premixes to the wells: • Aβ(40) premix: 1 μg/ml ruthenylated G2-10 antibody, 4 μg/ml biotinylated 4G8 antibody diluted in Origen buffer • Aβ(42) premix: 1 μg/ml ruthenylated G2-11 antibody, 4 μg/ml biotinylated 4G8 antibody diluted in Origen buffer
(Biotinylated 4G8 antibody supplied by Signet Pathology Ltd; G2-10 and G2-11 antibodies supplied by Chemicon)
After overnight incubation of the assay plates on a shaker at 4° C., the Meso Scale Sector 6000 Imager was calibrated according to the manufacturer's instructions. After washing the plates 3 times with 150 μl of PBS per well, 150 μl Meso Scale Discovery read buffer was added to each well and the plates were read on the Sector 6000 Imager according to the manufacturer's instructions.
LD50 and IC50 values for inhibition of Aβ(40) and Aβ(42) were calculated by nonlinear regression fit analysis using the appropriate software (eg. Excel fit). The total signal and the background were defined by the corresponding Me2SO and inhibitor controls.

Row | SMILES | IC50 [nM]
1 | CCN(CC)c1ccc(Nc2ccnc(N3CCN(c4ccc(OC)nc4)CC3)n2)c(C)c1 [Example 5] | 1000 to 3000
2 | COc1ccc(N2CCN(c3ncc(F)c(Nc4cc(C(C)(C)C)ccc4C)n3)CC2(C)C)cc1F [Example 88, N-(5-tert-butyl-2-methylphenyl)-5-fluoro-2-[4-(3-fluoro-4-methoxyphenyl)-3,3-dimethylpiperazin-1-yl]pyrimidin-4-amine] | 500 to 1000
3 | CCN(CC)c1ccc(Nc2cc(C)nc(N3CCN(c4ccc(OC)cc4)C(C)(C)C3)n2)c(C)c1 [Example 15, N4,N4-diethyl-N1-{2-[4-(4-methoxyphenyl)-3,3-dimethylpiperazin-1-yl]-6-methylpyrimidin-4-yl}-2-methylbenzene-1,4-diamine] | 500 to 1000
4 | CCN(CC)c1ccc(Nc2nc(N3CCN(c4ccc(OC)cc4)C(C)(C)C3)ncc2OC)c(C)c1 [Example 25, N4,N4-diethyl-N1-{5-methoxy-2-[4-(4-methoxyphenyl)-3,3-dimethylpiperazin-1-yl]pyrimidin-4-yl}-2-methylbenzene-1,4-diamine] | < 500
5 | COc1ccc(N2CCN(c3nccc(Nc4cc(C(C)(C)C)nn4C)n3)CC2(C)C)cc1 [Example 37, N-(3-tert-butyl-1-methyl-1H-pyrazol-5-yl)-2-[4-(4-methoxyphenyl)-3,3-dimethylpiperazin-1-yl]pyrimidin-4-amine] | < 500
6 | CCN(CC)c1ccc(Nc2cc(C(=O)OC)nc(N3CCN(c4ccc(OC)cc4)C(C)(C)C3)n2)c(C)c1 [Example 22, methyl 6-{[4-(diethylamino)-2-methylphenyl]amino}-2-[4-(4-methoxyphenyl)-3,3-dimethylpiperazin-1-yl]pyrimidine-4-carboxylate] | < 500
7 | CCN(CC)c1ccc(Nc2nc(N3CCN(c4ccc(OC)cc4)C(C)(C)C3)ncc2F)c(C)c1 [Example 18, N4,N4-diethyl-N1--{5-fluoro-2-[4-(4-methoxyphenyl)-3,3-dimethylpiperazin-1-yl]pyrimidin-4-yl}-2-methylbenzene-1,4-diamine] | < 500
8 | COc1ccc(N2CCN(c3nccc(Nc4ccc(N5CCC5)cc4C)n3)CC2(C)C)cc1 [Example 43, N-(4-azetidin-1-yl-2-methylphenyl)-2-[4-(4-methoxyphenyl)-3,3-dimethylpiperazin-1-yl]pyrimidin-4-amine] | 500 to 1000
9 | CCN(CC)c1ccc(Nc2cc(C(=O)N(C)C)nc(N3CCN(c4ccc(OC)cc4)C(C)(C)C3)n2)c(C)c1 [Example 27, 6-{[4-(diethylamino)-2-methylphenyl]amino}-2-[4-(4-methoxyphenyl)-3,3-dimethylpiperazin-1-yl]-N,N-dimethylpyrimidine-4-carboxamide] | < 500
10 | CCCCc1ccc(Nc2ccnc(N3CCN(c4ccc(OC)cc4)C(C)(C)C3)n2)c(C)c1 [Example 44, N-(4-butyl-2-methylphenyl)-2-[4-(4-methoxyphenyl)-3,3-dimethylpiperazin-1-yl]pyrimidin-4-amine] | 1000 to 3000
11 | CCN(CC)c1ccc(Nc2ccnc(N3CCN(c4ccc(OC)cc4)C(C)C3)n2)c(C)c1 (stereo not shown) [Example 10, N4,N4-diethyl-N1-{2-[4-(4-methoxyphenyl)-3-methylpiperazin-1-yl]pyrimidin-4-yl}-2-methylbenzene-1,4-diamine] | 500 to 1000
12 | COc1ccc(N2CCN(c3nc(Nc4cc(C(C)(C)C)ccc4C)cc(C(=O)N(C)CCN(C)C)n3)CC2(C)C)cc1 [Example 93, 6-[(5-tert-butyl-2-methylphenyl)amino]-N-[2-(dimethylamino)ethyl]-2-[4-(4-methoxyphenyl)-3,3-dimethylpiperazin-1-yl]-N-methylpyrimidine-4-carboxamide] | < 500
13 | COc1ccc(N2CCN(c3ncc(F)c(Nc4cc(C(C)(C)C)ccc4C)n3)CC2(C)C)cc1 [Example 8] | 500 to 1000
14 | COc1ccc(N2CCN(c3nccc(Nc4ccc(-n5cccn5)cc4C)n3)CC2(C)C)cc1 [Example 41, 2-[4-(4-methoxyphenyl)-3,3-dimethylpiperazin-1-yl]-N-[2-methyl-4-(1H-pyrazol-1-yl)phenyl]pyrimidin-4-amine] | 500 to 1000
15 | CCN(CC)c1ccc(Nc2nc(N3CCN(c4ccc(OC)cc4)C(C)(C)C3)ncc2Cl)c(C)c1 [Example 19, N1-{5-chloro-2-[4-(4-methoxyphenyl)-3,3-dimethylpiperazin-1-yl]pyrimidin-4-yl}-N4,N4-diethyl-2-methylbenzene-1,4-diamine] | 500 to 1000
16 | CCN(CC)c1ccc(Nc2ccnc(N3CCN(c4ccc(OC)c(OC)c4)CC3)n2)c(C)c1 [Example 24, N1-{2-[4-(3,4-dimethoxyphenyl)piperazin-1-yl]pyrimidin-4-yl}-N4,N4-diethyl-2-methylbenzene-1,4-diamine] | 1000 to 3000

Continued, values first:

Row | IC50 [nM] | SMILES
17 | 1000 to 3000 | CCN(CC)c1ccc(Nc2ccnc(N3CCN(c4ccc(OC)cc4)CC3)n2)c(C)c1 [Example 3, N,N-Diethyl-N-{2-[4-(4-methoxy-phenyl)-piperazin-1-yl]-pyrimidin-4-yl}-2-methyl-benzene-1,4-diamine]
18 | < 500 | COc1ccc(N2CCN(c3ncc(F)c(Nc4cc(C(C)(C)C)nn4C)n3)CC2(C)C)cc1 [Example 38, N-(3-tert-butyl-1-methyl-1H-pyrazol-5-yl)-5-fluoro-2-[4-(4-methoxyphenyl)-3,3-dimethylpiperazin-1-yl]pyrimidin-4-amine]
19 | 500 to 1000 | CCN(CC)c1ccc(Nc2nc(N3CCN(c4ccc(OC)cc4)C(C)(C)C3)ncc2Br)c(C)c1 [Example 20, N1-{5-bromo-2-[4-(4-methoxyphenyl)-3,3-dimethylpiperazin-1-yl]pyrimidin-4-yl}-N4,N4-diethyl-2-methylbenzene-1,4-diamine]
20 | < 500 | CCN(CC)c1cc(C)c(Nc2ccnc(N3CCN(c4ccc(OC)cc4)C(C)(C)C3)n2)cc1C [Example 16, N4,N4-diethyl-N1-{2-[4-(4-methoxyphenyl)-3,3-dimethylpiperazin-1-yl]pyrimidin-4-yl}-2,5-dimethylbenzene-1,4-diamine]
21 | 500 to 1000 | CCN(CC)c1ccc(Nc2cc(C(=O)O)nc(N3CCN(c4ccc(OC)cc4)C(C)(C)C3)n2)c(C)c1 [Example 26, 6-[[4-(diethylamino)-2-methylphenyl]amino]-2-[4-(4-methoxyphenyl)-3,3-dimethyl-1-piperazinyl]-4-pyrimidinecarboxylic acid]
22 | < 500 | CCOc1cc(C)c(Nc2cc(C(=O)OC)nc(N3CCN(c4ccc(OC)cc4)C(C)(C)C3)n2)cc1C(C)C [Example 28, 6-[(4-ethoxy-5-isopropyl-2-methylphenyl)amino]-2-[4-(4-methoxyphenyl)-3,3-dimethylpiperazin-1-yl]pyrimidine-4-carboxylate methyl]
23 | < 500 | CCOc1cc(C)c(Nc2ccnc(N3CCN(c4ccc(OC)cc4)C(C)(C)C3)n2)cc1C(C)C [Example 45, N-(4-ethoxy-5-isopropyl-2-methylphenyl)-2-[4-(4-methoxyphenyl)-3,3-dimethylpiperazin-1-yl]pyrimidin-4-amine]
24 | 1000 to 3000 | COc1ccc(N2CCN(c3nccc(Nc4cc(OC)ccc4C)n3)CC2(C)C)cc1 [Example 11, N-(5-methoxy-2-methylphenyl)-2-[4-(4-methoxyphenyl)-3,3-dimethylpiperazin-1-yl]pyrimidin-4-amine]
25 | < 500 | CCN(CC)c1ccc(Nc2nc(N3CCN(c4ccc(OC)cc4)C(C)(C)C3)ncc2C)c(C)c1 [Example 14, N4,N4-diethyl-N1-{2-[4-(4-methoxyphenyl)-3,3-dimethylpiperazin-1-yl]-5-methylpyrimidin-4-yl}-2-methylbenzene-1,4-diamine]
